From ChEMBL document CHEMBL1914418, “Biochemical and pharmacological profiling of the pro-survival protein Bcl-xL” (Bioorg Med Chem Lett, 2011)

Columns and labels:
Bcl-2-like protein 1 [1] = molecular target: Bcl-2-like protein 1 (Homo sapiens, UniProt Q07817, A142G); experiment: Displacement of BODIPY-Bak conjugated peptide from GST-tagged human Bcl-2-like protein 1 A142G mutant expressed in Escherichia coli BL21 cells at 10 uM after 3 hrs by fluorescence polarization competition assay
Bcl-2-like protein 1 [2] = molecular target: Bcl-2-like protein 1 (Homo sapiens, UniProt Q07817, E129H); experiment: Displacement of BODIPY-Bak conjugated peptide from GST-tagged human Bcl-2-like protein 1 E129H mutant expressed in Escherichia coli BL21 cells at 10 uM after 3 hrs by fluorescence polarization competition assay
Chain of Bcl-2-like protein 1 (Homo sapiens, UniProt Q07817, E129H) (Q07817 whole entry E129H): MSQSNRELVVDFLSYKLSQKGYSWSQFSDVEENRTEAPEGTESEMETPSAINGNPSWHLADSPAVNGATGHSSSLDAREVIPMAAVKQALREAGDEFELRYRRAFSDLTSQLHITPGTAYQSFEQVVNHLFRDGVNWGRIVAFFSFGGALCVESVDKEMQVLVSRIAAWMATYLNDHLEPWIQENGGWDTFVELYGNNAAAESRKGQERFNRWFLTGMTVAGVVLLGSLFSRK

Bcl-2-like protein 1 [3] = molecular target: Bcl-2-like protein 1 (Homo sapiens, UniProt Q07817, F97V); experiment: Displacement of BODIPY-Bak conjugated peptide from GST-tagged human Bcl-2-like protein 1 F97V mutant expressed in Escherichia coli BL21 cells at 10 uM after 3 hrs by fluorescence polarization competition assay
Chain of Bcl-2-like protein 1 (Homo sapiens, UniProt Q07817, F97V) (Q07817 whole entry F97V): as the sequence (Q07817 whole entry E129H) above, with F97V, H129E counted along it

Bcl-2-like protein 1 [4] = molecular target: Bcl-2-like protein 1 (Homo sapiens, UniProt Q07817, V141A); experiment: Displacement of BODIPY-Bak conjugated peptide from GST-tagged human Bcl-2-like protein 1 V141A mutant expressed in Escherichia coli BL21 cells at 10 uM after 3 hrs by fluorescence polarization competition assay
Chain of Bcl-2-like protein 1 (Homo sapiens, UniProt Q07817, V141A) (Q07817 whole entry V141A): as the sequence (Q07817 whole entry E129H) above, with H129E, V141A counted along it

Bcl-2-like protein 1 [5] = molecular target: Bcl-2-like protein 1 (Homo sapiens, UniProt Q07817, E96G); experiment: Displacement of BODIPY-Bak conjugated peptide from GST-tagged human Bcl-2-like protein 1 E96G mutant expressed in Escherichia coli BL21 cells at 10 uM after 3 hrs by fluorescence polarization competition assay
Chain of Bcl-2-like protein 1 (Homo sapiens, UniProt Q07817, E96G) (Q07817 whole entry E96G): as the sequence (Q07817 whole entry E129H) above, with E96G, H129E counted along it

Bcl-2-related protein A1 = molecular target: T1, Bcl-2-related protein A1 (Homo sapiens, UniProt Q16548); experiment: Binding affinity for GST-tagged human BCL2A1 expressed in Escherichia coli BL21 cells
T1 sequence (Q16548 whole entry): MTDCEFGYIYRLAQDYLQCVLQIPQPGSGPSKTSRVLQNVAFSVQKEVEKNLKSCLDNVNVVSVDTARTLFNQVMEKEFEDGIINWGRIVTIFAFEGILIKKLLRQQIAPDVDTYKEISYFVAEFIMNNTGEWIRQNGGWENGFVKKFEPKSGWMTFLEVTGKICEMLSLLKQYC

Bcl-2-like protein 1 [6] = molecular target: Bcl-2-like protein 1 (Homo sapiens, UniProt Q07817, L130A); experiment: Displacement of BODIPY-Bak conjugated peptide from GST-tagged human Bcl-2-like protein 1 L130A mutant expressed in Escherichia coli BL21 cells at 10 uM after 3 hrs by fluorescence polarization competition assay
Chain of Bcl-2-like protein 1 (Homo sapiens, UniProt Q07817, L130A) (Q07817 whole entry L130A): as the sequence (Q07817 whole entry E129H) above, with H129E, L130A counted along it

Bcl-2-like protein 1 [7] = molecular target: Bcl-2-like protein 1 (Homo sapiens, UniProt Q07817, Y101H); experiment: Displacement of BODIPY-Bak conjugated peptide from GST-tagged human Bcl-2-like protein 1 Y101H mutant expressed in Escherichia coli BL21 cells at 10 uM after 3 hrs by fluorescence polarization competition assay
Chain of Bcl-2-like protein 1 (Homo sapiens, UniProt Q07817, Y101H) (Q07817 whole entry Y101H): as the sequence (Q07817 whole entry E129H) above, with Y101H, H129E counted along it

Bcl-2-like protein 1 [8] = molecular target: Bcl-2-like protein 1 (Homo sapiens, UniProt Q07817, G196A); experiment: Displacement of BODIPY-Bak conjugated peptide from GST-tagged human Bcl-2-like protein 1 G196A mutant expressed in Escherichia coli BL21 cells at 10 uM after 3 hrs by fluorescence polarization competition assay
Chain of Bcl-2-like protein 1 (Homo sapiens, UniProt Q07817, G196A) (Q07817 whole entry G196A): as the sequence (Q07817 whole entry E129H) above, with H129E, G196A counted along it

Bcl-2-like protein 1 [9] = molecular target: Bcl-2-like protein 1 (Homo sapiens, UniProt Q07817, A142T); experiment: Displacement of BODIPY-Bak conjugated peptide from GST-tagged human Bcl-2-like protein 1 A142T mutant expressed in Escherichia coli BL21 cells at 10 uM after 3 hrs by fluorescence polarization competition assay
Chain of Bcl-2-like protein 1 (Homo sapiens, UniProt Q07817, A142T) (Q07817 whole entry A142T): as the sequence (Q07817 whole entry E129H) above, with H129E, A142T counted along it

Bcl-2-like protein 1 [10] = molecular target: Bcl-2-like protein 1 (Homo sapiens, UniProt Q07817, L130G); experiment: Displacement of BODIPY-Bak conjugated peptide from GST-tagged human Bcl-2-like protein 1 L130G mutant expressed in Escherichia coli BL21 cells at 10 uM after 3 hrs by fluorescence polarization competition assay
Chain of Bcl-2-like protein 1 (Homo sapiens, UniProt Q07817, L130G) (Q07817 whole entry L130G): as the sequence (Q07817 whole entry E129H) above, with H129E, L130G counted along it

[11] = molecular target: Induced myeloid leukemia cell differentiation protein Mcl-1 homolog (Mus musculus, UniProt P97287); experiment: Binding affinity for GST-tagged mouse MCL1 expressed in Escherichia coli BL21 cells
Chain of Induced myeloid leukemia cell differentiation protein Mcl-1 homolog (P97287 whole entry): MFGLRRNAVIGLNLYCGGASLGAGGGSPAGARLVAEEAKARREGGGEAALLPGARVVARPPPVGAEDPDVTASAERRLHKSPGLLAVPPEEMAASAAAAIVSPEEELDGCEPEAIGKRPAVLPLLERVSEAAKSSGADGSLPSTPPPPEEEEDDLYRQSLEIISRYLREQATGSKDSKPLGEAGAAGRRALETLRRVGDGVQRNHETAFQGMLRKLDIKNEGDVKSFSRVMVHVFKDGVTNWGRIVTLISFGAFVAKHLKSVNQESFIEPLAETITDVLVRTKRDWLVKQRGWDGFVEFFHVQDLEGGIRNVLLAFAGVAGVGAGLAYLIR

Bcl-2-like protein 1 [12] = molecular target: Bcl-2-like protein 1 (Homo sapiens, UniProt Q07817); experiment: Displacement of BODIPY-Bak conjugated peptide from GST-tagged human Wild type Bcl-2-like protein 1 expressed in Escherichia coli BL21 cells at 10 uM after 3 hrs by fluorescence polarization competition assay
Chain of Bcl-2-like protein 1 (Homo sapiens, UniProt Q07817) (Q07817 whole entry): as the sequence (Q07817 whole entry E129H) above, with H129E counted along it

[13] = Displacement of BODIPY-Bak conjugated peptide from GST-tagged human Bcl-2-like protein 1 delta136T mutant expressed in Escherichia coli BL21 cells at 10 uM after 3 hrs by fluorescence polarization competition assay
[14] = Displacement of BODIPY-Bak conjugated peptide from GST-tagged human Bcl-2-like protein 1 A142Gdelta136T mutant expressed in Escherichia coli BL21 cells at 10 uM after 3 hrs by fluorescence polarization competition assay
Bcl-2-like protein 1 [15] = molecular target: Bcl-2-like protein 1 (Homo sapiens, UniProt Q07817, Y195F); experiment: Displacement of BODIPY-Bak conjugated peptide from GST-tagged human Bcl-2-like protein 1 Y195F mutant expressed in Escherichia coli BL21 cells at 10 uM after 3 hrs by fluorescence polarization competition assay
Chain of Bcl-2-like protein 1 (Homo sapiens, UniProt Q07817, Y195F) (Q07817 whole entry Y195F): as the sequence (Q07817 whole entry E129H) above, with H129E, Y195F counted along it

Bcl-2-like protein 1 [16] = molecular target: Bcl-2-like protein 1 (Homo sapiens, UniProt Q07817, A93V); experiment: Displacement of BODIPY-Bak conjugated peptide from GST-tagged human Bcl-2-like protein 1 A93V mutant expressed in Escherichia coli BL21 cells at 10 uM after 3 hrs by fluorescence polarization competition assay
Chain of Bcl-2-like protein 1 (Homo sapiens, UniProt Q07817, A93V) (Q07817 whole entry A93V): as the sequence (Q07817 whole entry E129H) above, with A93V, H129E counted along it

Chain of Bcl-2-like protein 1 (Homo sapiens, UniProt Q07817, A142G) (Q07817 whole entry A142G): as the sequence (Q07817 whole entry E129H) above, with H129E, A142G counted along it

- Ki (Bcl-2-like protein 1 [1]): 290 nM
- Ki (Bcl-2-like protein 1 [2]): 34 nM
- Ki (Bcl-2-like protein 1 [3]): 82 nM
- Ki (Bcl-2-like protein 1 [4]): 390 nM
- Ki (Bcl-2-like protein 1 [5]): 24 nM
- Kd (Bcl-2-related protein A1): > 1000 nM
- Ki (Bcl-2-like protein 1 [6]): 47 nM
- Ki (Bcl-2-like protein 1 [7]): 450 nM
- Ki (Bcl-2-like protein 1 [8]): 41 nM
- Ki (Bcl-2-like protein 1 [9]): 720 nM
- Ki (Bcl-2-like protein 1 [10]): 86 nM
- Kd [11]: > 1000 nM
- Ki (Bcl-2-like protein 1 [12]): 6.3 nM
- Ki (Bcl-2-like protein 1 [15]): 51 nM
- Ki (Bcl-2-like protein 1 [16]): < 1 nM
Compound: CN(C)CC[C@H](CSc1ccccc1)Nc1ccc(S(=O)(=O)NC(=O)c2ccc(N3CCC(C)(C)CC3)cc2)cc1[N+](=O)[O-]
- Ki [13]: 34 nM
- Ki [14]: 45 nM
